IC50 and remaining activity data for 15 compounds are collected here from patent US10399948B2, “Negative allosteric modulators of metabotropic glutamate receptor 3” (Vanderbilt University, priority 2015, dated 2019).

The target of one assay is rat mGlu3 (Rattus norvegicus (Rat), UniProt P31422). The experiment in a line: mGlu3 Ca2+ flux assay. Format: cell-based. As to conditions: for IC50: NAM, glutamate EC80, >10,000 = decrease without plateau, >30,000 = no measurable activity; for remaining activity at 30 µM: response at 30 μM test compound as percentage of maximal response to glutamate, read-out: rat mGlu3 Glu max (%). As to the method: Gα15/TREx cells stably expressing rat mGlu3 were plated in black-walled, clear-bottomed, poly-D-lysine coated 384-well plates in 20 μL of assay medium (DMEM containing 10% dialyzed FBS, 20 mM HEPES, 25 ng/mL tetracycline, 100 units/mL penicillin/streptomycin plus 250 ng/mL Fungizone, and 1 mM sodium pyruvate) at a density of 15K cells/well. The cells were grown overnight at 37° C. in the presence of 5% CO2. […] Dye was removed, 20 μL of assay buffer was added, and the plate was incubated for 10 minutes at room temperature.
(§1) Ca^2+ flux was measured using the Functional Drug Screening System (FDSS7000, Hamamatsu, Japan). After establishment of a fluorescence baseline for about 3 seconds, the compounds of the present invention were added to the cells, and the response in cells was measured. 2.3 minutes later an EC20 concentration of the mGlu3 receptor agonist glutamate was added to the cells, and the response of the cells was measured for 1.9 minutes; an EC80 concentration of agonist was added and readings taken for an additional 1.7 minutes. All test compounds were dissolved and diluted to a concentration of 10 mM in 100% DMSO. Compounds were then serially diluted 1:3 in DMSO into 10 point concentration response curves, transferred to daughter plates, and further diluted into assay buffer to a 2× stock. Calcium fluorescence measures were recorded as fold over basal fluorescence; raw data was then normalized to the maximal response to glutamate.
(§2) The raw data file containing all time points was used as the data source in the analysis template. This was saved by the FDSS as a tab-delimited text file. Data were normalized using a static ratio function (F/F0) for each measurement of the total 360 values per well divided by each well's initial value. Data were then reduced to peak amplitudes (Max−Initial Min) using a time range that starts approximately 3 seconds prior to the glutamate EC80 addition and continues for approximately 90 seconds. This is sufficient time to capture the peak amplitude of the cellular calcium response. Individual amplitudes were expressed as % EMax by multiplying each amplitude by 100 and then dividing the product by the mean of the amplitudes derived from the glutamate ECMax-treated wells. EC50 values for test compounds were generated by fitting the normalized values versus the log of the test compound concentration (in mol/L) using a 4 parameter logistic equation where none of the parameters were fixed. Each of the three values collected at each concentration of test compound were weighted evenly.
Background: A change in cytosolic calcium serves as a functional read-out for many receptors and channels.

A further assay concerns the target rat mGlu2 (Rattus norvegicus (Rat), UniProt P31421). Description: mGlu2 Ca2+ flux assay. As to conditions: NAM, glutamate EC80; >30,000 = no measurable activity. The assay is classed as cell-based. As to the method:
Gα15 HEK293 cells stably expressing rat mGlu2 were plated in black-walled, clear-bottomed, poly-D-lysine coated 384-well plates in 20 μL of assay medium (DMEM containing 10% dialyzed FBS, 20 mM HEPES, and 1 mM sodium pyruvate) at a density of 12K cells/well. The cells were grown overnight at 37° C. in the presence of 5% CO2. The next day, medium was removed and the cells incubated with 20 μL of […] Fluo-4, AM prepared as a 2.3 mM stock in DMSO and mixed in a 1:1 ratio with 10% (w/v) pluronic acid F-127 and diluted in assay buffer (Hank's balanced salt solution, 20 mM HEPES, and 2.5 mM probenecid) for 45 minutes at 37° C. Dye was removed, 20 μL of assay buffer was added, and the plate was incubated for 5 minutes at room temperature.
as §1, with “mGlu2” for “mGlu3”
as §2, with “ECMax” for “EMax”, “IC50” for “EC50”

Molecules are shown by their SMILES. Bounds are passed on as bounds.

rat mGlu2, sequence (P31421 19-872): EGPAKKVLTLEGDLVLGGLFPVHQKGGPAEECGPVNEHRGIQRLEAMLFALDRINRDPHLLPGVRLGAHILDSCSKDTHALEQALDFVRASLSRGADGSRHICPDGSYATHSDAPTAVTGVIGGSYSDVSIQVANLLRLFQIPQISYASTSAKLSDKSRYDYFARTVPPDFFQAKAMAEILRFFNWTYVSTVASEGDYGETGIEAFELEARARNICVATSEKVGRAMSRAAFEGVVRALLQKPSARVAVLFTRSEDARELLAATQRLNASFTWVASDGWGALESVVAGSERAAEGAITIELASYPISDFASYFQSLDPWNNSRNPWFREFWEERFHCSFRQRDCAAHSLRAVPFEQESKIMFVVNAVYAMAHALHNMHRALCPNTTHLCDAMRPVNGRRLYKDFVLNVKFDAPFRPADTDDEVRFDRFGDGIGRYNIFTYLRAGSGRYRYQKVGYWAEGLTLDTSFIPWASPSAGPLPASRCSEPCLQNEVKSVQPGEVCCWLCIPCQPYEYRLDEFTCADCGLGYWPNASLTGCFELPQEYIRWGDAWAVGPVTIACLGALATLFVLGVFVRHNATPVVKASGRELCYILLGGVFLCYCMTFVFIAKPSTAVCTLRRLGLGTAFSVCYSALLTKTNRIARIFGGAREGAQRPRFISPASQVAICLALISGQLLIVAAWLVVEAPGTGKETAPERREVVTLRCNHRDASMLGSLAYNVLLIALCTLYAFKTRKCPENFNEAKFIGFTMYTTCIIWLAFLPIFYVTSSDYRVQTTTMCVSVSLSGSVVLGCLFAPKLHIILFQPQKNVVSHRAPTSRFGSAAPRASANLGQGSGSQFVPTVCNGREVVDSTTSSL
rat mGlu3, sequence (P31422 23-879): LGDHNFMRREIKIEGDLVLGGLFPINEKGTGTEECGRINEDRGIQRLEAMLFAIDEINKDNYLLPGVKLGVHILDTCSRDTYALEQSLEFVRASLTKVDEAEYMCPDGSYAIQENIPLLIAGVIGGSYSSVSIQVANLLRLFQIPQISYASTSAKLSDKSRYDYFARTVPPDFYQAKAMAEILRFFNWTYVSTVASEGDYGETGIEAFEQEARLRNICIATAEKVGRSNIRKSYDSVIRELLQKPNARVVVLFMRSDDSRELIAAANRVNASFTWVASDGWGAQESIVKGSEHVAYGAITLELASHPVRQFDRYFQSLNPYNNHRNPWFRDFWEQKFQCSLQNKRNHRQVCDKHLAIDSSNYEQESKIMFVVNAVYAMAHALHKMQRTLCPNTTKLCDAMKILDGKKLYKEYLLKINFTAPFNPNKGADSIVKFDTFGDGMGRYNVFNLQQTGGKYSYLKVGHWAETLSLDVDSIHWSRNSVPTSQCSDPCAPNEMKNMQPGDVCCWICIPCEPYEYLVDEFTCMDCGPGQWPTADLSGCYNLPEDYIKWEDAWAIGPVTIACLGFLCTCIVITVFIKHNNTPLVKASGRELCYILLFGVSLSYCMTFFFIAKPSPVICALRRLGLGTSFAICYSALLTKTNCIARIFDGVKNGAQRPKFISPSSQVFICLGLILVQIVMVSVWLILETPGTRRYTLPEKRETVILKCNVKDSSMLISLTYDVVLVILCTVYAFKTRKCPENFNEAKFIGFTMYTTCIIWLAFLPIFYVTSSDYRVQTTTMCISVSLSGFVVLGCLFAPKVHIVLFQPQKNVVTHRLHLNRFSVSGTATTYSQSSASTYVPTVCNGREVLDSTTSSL

On to `O=c1cc(OCCCc2ccccc2)ccn1-c1ccc(F)cc1` [Compound 2, 1-(4-fluorophenyl)-4-(3-phenylpropoxy)pyridin-2(1H)-one], for which the IC50 is 5.41 µM at rat mGlu3 and above 30 µM against rat mGlu2. Moreover, the remaining activity at 30 µM at rat mGlu3 was found to be 1.95%.
For `O=c1cc(OCCSc2ccccc2)ccn1-c1ccc(F)cc1` [Compound 3, 1-(4-fluorophenyl)-4-(2-(phenylthio)ethoxy)pyridin-2(1H)-one], the values for the half-maximal inhibitory concentration (IC50) against rat mGlu3 and against rat mGlu2 were 3.89 µM and above 30 µM, respectively. Moreover, the remaining activity at 30 µM at rat mGlu3 stood at 1.42%.
As to `CN(CCOc1ccn(-c2ccc(F)cc2)c(=O)c1)c1ccccc1` [Compound 4, 1-(4-fluorophenyl)-4-(2-(methyl(phenyl)amino)ethoxy)pyridin-2(1H)-one], on rat mGlu3, the IC50 worked out at 4 µM and the remaining activity at 30 µM was 0%. At rat mGlu2, this compound returned an IC50 above 30 µM.
Consider `O=c1cc(OCCOC2CCCC2)ccn1-c1ccc(F)cc1` [Compound 6, 4-(2-(cyclopentyloxy)ethoxy)-1-(4-fluorophenyl)pyridin-2(1H)-one], for which the IC50 on rat mGlu3 is above 30 µM.
Turning to `O=c1cc(OCCOC2CCCCC2)ccn1-c1ccc(F)cc1` [Compound 7, 4-(2-(cyclohexyloxy)ethoxy)-1-(4-fluorophenyl)pyridin-2(1H)-one], at rat mGlu3, the IC50 was above 10 µM and the remaining activity at 30 µM came out at 15.5%.
As to `O=c1cc(OCC[S+]([O-])c2ccccc2)ccn1-c1ccc(F)cc1` (centres unmarked) [Compound 8, 1-(4-fluorophenyl)-4-(2-(phenylsulfinyl)ethoxy)pyridin-2(1H)-one], the IC50 at rat mGlu3 is above 30 µM.
For the compound `O=c1cc(OCCS(=O)(=O)c2ccccc2)ccn1-c1ccc(F)cc1` [Compound 9, 1-(4-fluorophenyl)-4-(2-(phenylsulfonyl)ethoxy)pyridin-2(1H)-one], the IC50 against rat mGlu3 is above 30 µM.
On to `O=c1cc(OCCOc2ccccc2)ccn1-c1ccccc1F` [Compound 10, 1-(2-Fluorophenyl)-4-(2-phenoxyethoxy)pyridin-2-one], for which, at rat mGlu3, the IC50 stood at 3.93 µM and the remaining activity at 30 µM was found to be 1.16%. In addition, on rat mGlu2, the IC50 was above 30 µM.
In the case of `O=c1cc(OCCOc2ccccc2)ccn1-c1ccccn1` [Compound 11, 4-(2-phenoxyethoxy)-2H-[1,2′-bipyridin]-2-one], the IC50 against rat mGlu3 and on rat mGlu2 was above 30 µM each time.
In the case of `O=c1cc(OCCOc2ccccc2)ccn1-c1cccc(F)n1` [Compound 12, 6′-fluoro-4-(2-phenoxyethoxy)-2H-[1,2′-bipyridin]-2-one], on rat mGlu3, the IC50 was above 10 µM and the remaining activity at 30 µM was determined as 33.2%. The compound also registered an IC50 against rat mGlu2 above 30 µM.
Consider `O=c1cc(OCCOc2ccccc2)ccn1-c1ccncc1` [Compound 13, 4-(2-phenoxyethoxy)-2H-[1,4′-bipyridin]-2-one], for which the 50% inhibitory concentration (IC50) at rat mGlu3 and against rat mGlu2 was above 30 µM throughout.
As for `O=c1nc(OCCOc2ccccc2)ccn1-c1ccc(F)cn1` [Compound 16, 1-(5-fluoropyridin-2-yl)-4-(2-phenoxyethoxy)pyrimidin-2(1H)-one], the IC50 against rat mGlu3 was above 10 µM; at rat mGlu2 it was above 30 µM. Also, the remaining activity at 30 µM at rat mGlu3 worked out at 23.9%.
`N#Cc1ccc(-n2ccc(OCCOc3ccccc3)cc2=O)cc1` [Compound 24, 4-(2-oxo-4-(2-phenoxyethoxy)pyridin-1(2H)-yl)benzonitrile]: at rat mGlu3, the IC50 stood at 3.17 µM and the remaining activity at 30 µM was determined as 0.49%. The same compound displayed an IC50 at rat mGlu2 above 30 µM.
For `O=c1cc(OCCOc2ccccc2)ccn1-c1ccc(F)nc1` [Compound 25, 6′-fluoro-4-(2-phenoxyethoxy)-2H-[1,3′-bipyridin]-2-one], on rat mGlu3, the IC50 came to 6.75 µM and the remaining activity at 30 µM was -2.95%. The same compound gave a concentration for half-maximal inhibition (IC50) against rat mGlu2 above 30 µM.
Regarding `O=c1cc(OCCOCc2ccccc2)ccn1-c1ccc(F)cc1` [W, 4-(2-(Benzyloxy)ethoxy)-1-(4-fluorophenyl)pyridin-2(1H)-one], on rat mGlu3, the IC50 came to 13 µM and the remaining activity at 30 µM came to 14.5%.

For orientation: IC50 means the midpoint of a concentration-inhibition curve.
